Measured values from patent US20240287614A1, “RECIPROCAL MICRORNA-MRNA PAIRINGS AS BIOMARKERS AND THERAPEUTIC TARGETS IN CANCER” (UNIVERSITY OF MARYLAND, EASTERN SHORE, priority 2023, published 2024).

Tested on: mTOR and pmTOR
Assay: Western blot of mTOR and pmTOR in cytoplasmic and nuclear fractions of prostate cancer cell lines
Format: cell-based, human
Description: The human cell lines used in the study included: 22Rv1, LNCaP, PC-3, RC77 T/E and MDA PCa 2b (prostate cancer cell lines), MDA MB 231 and MCF-7 (breast cancer cell lines), HT-29 and SW620 (colon cancer cell lines), A549 and H1299 (lung cancer cell lines). RWPE-1, HMEC, FHC, and BEAS-2B were used as normal control cell lines for prostate, breast, colon, and lung, respectively. Note that 22Rv1 is a castration-resistant […] prostate cancer cell line, while LNCaP and PC-3 were derived from lymph node and bone metastasis of […] prostate cancer patients, respectively. RC77 T/E was derived from a primary prostate cancer patient, and MDA PCa 2b was derived from bone metastasis of an prostate cancer patient. The cell lines described were used as in vitro cell models to evaluate the functional roles of miR-99b-5p/MTOR pairing in the […] prostate cancer, African American prostate cancer and solid tumors in general. The cells were grown in specific cell culture media described as follows: 22Rv1, LNCaP, MCF-7 and H1299 were cultured in RPMI-1640 with 10% fetal bovine serum (FBS), PC-3, A549 and FHC were cultured in DMEM with 10% FBS, RC77 T/E was cultured in Keratinocyte SFM with human recombinant epidermal growth factor (EGF) and bovine pituitary extract (BPE), MDA PCa 2b were cultured in BRFF-HPC1 with 20% FBS, HT-29 was cultured in McCory's with 10% FBS, SW620 and MDA MB 231 were cultured in L-15 with 10% FBS, HMEC was cultured in mammary epithelial cell basal medium with supplements, and BEAS-2B was cultured in BEBM base medium with BEBM supplement kit. Cells were maintained at 37° C. in a 5% CO2 incubator.
The 22Rv1, LNCaP, PC-3, MDA PCa 2b, MCF7, H1299, A549, HT-29, SW620, MDA MB-231, HMEC and BEAS-2B cells were seeded at a density of 3×10^5 cells/well in 6-well plates. RC77 T/E cells were seeded at a density of 5×10^5 cells/well in 6-well plates. The cells were grown for 24 h and then transfected with nonsense/scrambled RNA (NS) and miR-99b-5p mimic (Ambion) using DharmaFECT4 transfection reagent (Dharmacon). After 24 h, fresh media were applied to replace the transfection reagent-containing media, then the cells were incubated for an additional 24 h.
The total proteins were extracted using M-PER extraction reagent with protease and phosphatase inhibitor cocktail (Thermo Fisher Scientific) according to manufacturer's protocol. Cytoplasm and nuclear proteins were extracted using Subcellular Protein Fractionation kit (Thermo Fisher Scientific) according to the manufacturer's protocol. Equal amounts of proteins were used based on the quantification using BCA assay kit (Thermo Fisher Scientific), and the samples were separated by electrophoresis using NuPAGE 4-12% or 8% Bis-Tris gels (Invitrogen). The gels were transferred to PVDF membranes (Bio-Rad) then the PVDF membranes were incubated with SuperBlock blocking buffer (Thermo Fisher Scientific). After 1 h, the PVDF membranes were incubated with primary antibodies overnight at 4° C., washed 3 times with 1×TBST, and then incubated with secondary antibody for 1 h at room temperature, then washed 5 times with 1×TBST. The results were analyzed with SuperSignal ECL substrates (Thermo Fisher Scientific) and a ChemiDoc XRS system (Bio-Rad). The primary and secondary antibodies used in the study were mTOR, pmTOR, AR, GAPDH, Lamin B1, β-actin, and anti-rabbit IgG-HRP antibodies from Cell Signaling Technology.

[1] = all European American and African American prostate cancer cell lines, 48 h transfection, vs NS
[2] = metastatic prostate cancer cell line MDA PCa 2b

In the case of “miR-99b-5p mimic: miRNA mimic of miR-99b-5p (SEQ ID NO: 2, CACCCGUAGAACCGACCUUGCG), purchased from Ambion (listed as RNA, chemistry not given here; listed as Homo sapiens)”, the “mTOR in nuclear fractions (Western blot)” value [1] is reported as “moderate to significant reduction”, the “pmTOR in nuclear fractions (Western blot)” value [1] is reported as “moderate to significant reduction” and the “cytoplasmic mTOR (Western blot)” value (all the prostate cancer cell lines, vs NS) is reported as “slight to no reduction”. The “nuclear mTOR (Western blot)” value [2] was “significant decrease” and the “nuclear pmTOR (Western blot)” value [2] was “significant decrease”.
